In PubChem BioAssay (NCI):
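Step 1: Grow cells in 96-well plates. Step 2: Expose to compound for 48 hours at 5 concentrations. Step 3: Interpolate endpoints linearly; if unreached, use highest concentration. TGI is the concentration that stops growth completely.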

What was measured:
Test in all cases: inhibition of tumour cell growth, NCI panel, 48 h
HS 578T breast = system: HS 578T breast
A549 NSCLC = system: A549 NSCLC
K-562 leukemia = system: K-562 leukemia
PC-3 prostate = system: PC-3 prostate
SF-295 CNS = system: SF-295 CNS
MDA-MB-231 breast = system: MDA-MB-231 breast
DU-145 prostate = system: DU-145 prostate
MDA-N = system: MDA-N
LOX IMVI melanoma = system: LOX IMVI melanoma
BT-549 breast = system: BT-549 breast
OVCAR-3 ovarian = system: OVCAR-3 ovarian
SK-OV-3 ovarian = system: SK-OV-3 ovarian
TK-10 renal = system: TK-10 renal
KM12 colon = system: KM12 colon
SN12C renal = system: SN12C renal
OVCAR-8 ovarian = system: OVCAR-8 ovarian

Row | SMILES | TGI (HS 578T breast) [µM] | TGI (A549 NSCLC) [µM] | TGI (K-562 leukemia) [µM] | TGI (PC-3 prostate) [µM] | TGI (SF-295 CNS) [µM] | TGI (MDA-MB-231 breast) [nM] | TGI (DU-145 prostate) [nM] | TGI (MDA-N) [µM] | TGI (LOX IMVI melanoma) [nM] | TGI (BT-549 breast) [µM] | TGI (OVCAR-3 ovarian) [µM] | TGI (SK-OV-3 ovarian) [µM] | TGI (TK-10 renal) [nM] | TGI (KM12 colon) [nM] | TGI (SN12C renal) [nM] | TGI (OVCAR-8 ovarian) [µM]
1 | S=c1scc(-c2ccc(Cl)cc2)n1OC1CCCC1 | > 100 | > 100 | > 100 | > 100 | > 100 | > 100000 | > 100000 | > 100 | > 100000 | 94.7 | 74.9 | > 100 | > 100000 | > 100000 | > 100000 | > 100
2 | O=C1C=CC(=O)c2c(O)c(Nc3ccc(OC(F)(F)F)cc3)c(Cl)c(O)c21 | 10.8 | 11.7 | 4.36 | 9.62 | 4.62 | 1410 | 1370 | 5.2 | 677 | 3.12 | 1.45 | 3.19 | 2810 | 2950 | 1170 | 8.25
